Results: ChEMBL document CHEMBL4184324, “Ligand Desolvation Steers On-Rate and Impacts Drug Residence Time of Heat Shock Protein 90 (Hsp90) Inhibitors” (J Med Chem, 2018)

Biological target: Heat shock protein HSP90 (Homo sapiens, UniProt P07900+P08238)
Assay: Binding affinity to recombinant N-terminal Hsp90 (unknown origin) by SPR method
Format: protein assay

Kd	Compound
152.9 nM	Cc1cccc(Cc2n[nH]c3cc(O)c(C(=O)N(C)c4ccc(Cl)cc4)cc23)c1
38.6 nM	Cc1cccc(Cc2n[nH]c3cc(O)c(C(=O)N(C)c4ccc5c(c4)OCCO5)cc23)c1
89 nM	Cc1cccc(Cc2n[nH]c3cc(O)c(C(=O)N(C)c4cccc(Cl)c4)cc23)c1
61.2 nM	Cc1cccc(Cc2n[nH]c3cc(O)c(C(=O)N(C)c4cccc(F)c4)cc23)c1
42 nM	CN(C(=O)c1cc2c(CC3CCCCC3)n[nH]c2cc1O)c1ccc(N2CCOCC2)cc1
16 nM	Cc1cccc(Cc2n[nH]c3cc(O)c(C(=O)N(C)c4ccc(CNS(C)(=O)=O)cc4)cc23)c1
51.8 nM	CC(=O)N1CCc2ccc(N(C)C(=O)c3cc4c(Cc5cccc(C)c5)n[nH]c4cc3O)cc21
7.8 nM	CN(C(=O)c1cc2c(CC3CCCC3)n[nH]c2cc1O)c1ccc(N2CCOCC2)cc1
6.6 nM	CCCCc1n[nH]c2cc(O)c(C(=O)N(C)c3ccc(N4CCOCC4)cc3)cc12
17.2 nM	COc1ccc(N(C)C(=O)c2cc3c(Cc4cccc(C)c4)n[nH]c3cc2O)cc1Cl
11.5 nM	Cc1cccc(Cc2n[nH]c3cc(O)c(C(=O)N(C)c4ccc(COCCN(C)C)cc4)cc23)c1
24 nM	COc1ccc(N(C)C(=O)c2cc3c(Cc4cccc(C)c4)n[nH]c3cc2O)cc1
73 nM	Cc1cccc(Cc2n[nH]c3cc(O)c(C(=O)N(C)c4ccc(F)cc4)cc23)c1
43 nM	COc1cccc(N(C)C(=O)c2cc3c(Cc4cccc(C)c4)n[nH]c3cc2O)c1
155.3 nM	Cc1cccc(Cc2n[nH]c3cc(O)c(C(=O)N(C)c4ccc(Br)cc4)cc23)c1
25.4 nM	CC(=O)c1ccc(N(C)C(=O)c2cc3c(Cc4cccc(C)c4)n[nH]c3cc2O)cc1
12 nM	COc1cccc(Cc2n[nH]c3cc(O)c(C(=O)N(C)c4ccc(N5CCOCC5)cc4)cc23)c1
5.4 nM	CCCc1n[nH]c2cc(O)c(C(=O)N(C)c3ccc(N4CCOCC4)cc3)cc12
70 nM	Cc1cccc(Cc2n[nH]c3cc(O)c(C(=O)N(C)c4cccc(C)c4)cc23)c1
42 nM	CN(C(=O)c1cc2c(C(=O)N3CCCCC3)n[nH]c2cc1O)c1ccc(N2CCOCC2)cc1
50.9 nM	CC(=O)N1CCc2cc(N(C)C(=O)c3cc4c(Cc5cccc(C)c5)n[nH]c4cc3O)ccc21
33.4 nM	Cc1cccc(Cc2n[nH]c3cc(O)c(C(=O)N(C)c4ccc(CN5CCOCC5)cc4)cc23)c1
34.6 nM	Cc1ccccc1-n1c(-c2cc(C(=O)N(C)Cc3cccc(-c4cccnc4)c3)c(O)cc2O)n[nH]c1=O
32.5 nM	Cc1cccc(Cc2n[nH]c3cc(O)c(C(=O)N(C)c4ccc(OCCCC#N)cc4)cc23)c1
